Results: patent US5563145A, “Rapamycin 42-oximes and hydroxylamines” (American Home Products Corporation, priority 1994, dated 1996)
pIC50: −log10 of the molar value. Like-named read-outs stand apart in the source and are kept apart here.

Assays:
[1] = test system: cells from the thymus of normal BALB/c mice (T-cell proliferation); assay: comitogen-induced thymocyte proliferation procedure (LAF); assay type: cell-based; settings: for pIC50: read-out: LAF IC50; for LAF ratio (compared with rapamycin): ratio >1: inhibited thymocyte proliferation to a greater extent than rapamycin; for LAF percent inhibition of T-cell proliferation: at 0.1 μM
Protocol: (§1) Immunosuppressive activity for representative compounds of this invention was evaluated in an in vitro standard pharmacological test procedure to measure the inhibition of lymphocyte proliferation (LAF) and in two in vivo standard pharmacological test procedures. The pinch skin graft test procedure measures the immunosuppressive activity of the compound tested as well as the ability of the compound tested to inhibit or treat transplant rejection. The adjuvant arthritis standard pharmacological test procedure measures the ability of the compound tested to inhibit immune mediated inflammation. The adjuvant arthritis test procedure is a standard pharmacological test procedure for rheumatoid arthritis. The procedures for these standard pharmacological test procedures are provided below.
The comitogen-induced thymocyte proliferation procedure (LAF) was used as an in vitro measure of the immunosuppressive effects of representative compounds. Briefly, cells from the thymus of normal BALB/c mice are cultured for 72 hours with PHA and IL-1 and pulsed with tritiated thymidine during the last six hours. Cells are cultured with and without various concentrations of rapamycin, cyclosporin A, or test compound. Cells are harvested and incorporated radioactivity is determined. Inhibition of lymphoproliferation is assessed as percent change in counts per minute from non-drug treated controls. For each compound evaluated, rapamycin was also evaluated for the purpose of comparison. An IC50 was obtained for each test compound as well as for rapamycin. […] The results obtained are provided as an IC50 and as the percent inhibition of T-cell proliferation at 0.1 μM. […] A positive ratio indicates immunosuppressive activity. […] Calculation of the ratio is shown below. [formula]

[2] = test system: pinch skin graft from male BALB/c donors transplanted to male C3H(H-2K) recipients; assay: in vivo pinch skin graft survival test procedure; parameters: species or system mice: male BALB/c donors, male C3 H(H-2K) recipients; settings: 4 mg/kg, i.p.; untreated control grafts usually rejected within 6-7 days
Protocol: as §1
Representative compounds of this invention were also evaluated in an in vivo test procedure designed to determine the survival time of pinch skin graft from male BALB/c donors transplanted to male C3 H(H-2K) recipients. The method is adapted from Billingham R. E. and Medawar P. B., J. Exp. Biol. 28:385-402, (1951). Briefly, a pinch skin graft from the donor was grafted on the dorsum of the recipient as a allograft, and an isograft was used as control in the same region. The recipients were treated with either varying concentrations of test compounds intraperitoneally or orally. Rapamycin was used as a test control. Untreated recipients serve as rejection control. The graft was monitored daily and observations were recorded until the graft became dry and formed a blackened scab. This was considered as the rejection day. The mean graft survival time (number of days ±S.D.) of the drug treatment group was compared with the control group. Results are expressed as the mean survival time in days.

[3] = test system: uninjected hind paw inflammation (immune mediated, Freund's Complete Adjuvant); assay: adjuvant arthritis standard pharmacological test procedure; assay type: in vivo, male inbred Wistar Lewis rats; settings: 2 mg/kg, oral, 7 doses, day 16; more negative = more potent
Protocol: as §1
The adjuvant arthritis standard pharmacological test procedure measures the ability of test compounds to prevent immune mediated inflammation and inhibit or treat rheumatoid arthritis. The following briefly describes the test procedure used. A group of rats (male inbread Wistar Lewis rats) are pre-treated with the compound to be tested (1 h prior to antigen) and then injected with Freud's Complete Adjuvant (FCA) in the right hind paw to induce arthritis. The rats are then orally dosed on a Monday, Wednesday, Friday schedule from day 0-14 for a total of 7 doses. Both hind paws are measured on days 16, 23, and 30. The difference in paw volume (mL) from day 16 to day 0 is determined and a percent change from control is obtained. The left hind paw (uninjected paw) inflammation is caused by T-cell mediated inflammation and is recorded as % change from control. The right hind paw inflammation, on the other hand, is caused by nonspecific inflammation. Compounds were tested at a dose of 2 mg/kg.

[4] = test system: Candida albicans; settings: in vitro and in vivo; cited from earlier work
[5] = test system: experimental allergic encephalomyelitis model; settings: a model for multiple sclerosis; cited from earlier work
[6] = test system: adjuvant arthritis model; settings: a model for rheumatoid arthritis; cited from earlier work
[7] = test system: formation of IgE-like antibodies; settings: in vivo; cited from earlier work
[8] = BALB/c mouse thymocytes, PHA and IL-1, 72 hours, tritiated thymidine last six hours

Molecule	pIC50 [1, 8]	LAF ratio (compared with rapamycin) [1]	Skin graft survival (mean graft survival time ± S.D.) [2]	Percent change in adjuvant arthritis versus control (uninjected paw) [3]	further results
CO[C@H]1C[C@@H]2CC[C@@H](C)[C@@](O)(O2)C(=O)C(=O)N2CCCC[C@H]2C(=O)O[C@H]([C@H](C)C[C@@H]2CCC(=NOC(N)=O)[C@H](OC)C2)CC(=O)[C@H](C)/C=C(\C)[C@@H](O)[C@@H](OC)C(=O)[C@H](C)C[C@H](C)/C=C/C=C/C=C/1C [Example 4, 42-Deoxy-42-oxorapamycin-42-O-carbamoyloxime]	8.70	0.25	9.5 ± 1.1 days		
CO[C@H]1C[C@@H]2CC[C@@H](C)[C@@](O)(O2)C(=O)C(=O)N2CCCC[C@H]2C(=O)O[C@H]([C@H](C)C[C@@H]2CC[C@@H](O)[C@H](OC)C2)CC(=O)[C@H](C)/C=C(\C)[C@@H](O)[C@@H](OC)C(=O)[C@H](C)C[C@H](C)/C=C/C=C/C=C/1C [rapamycin]			11.67 ± 0.63 days	-70%	pIC50 ([1]; Mus musculus, T-cell): 8.48 to 9.30; antifungal activity, particularly against Candida albicans [4]: antifungal activity, particularly against Candida albicans; effect in experimental allergic encephalomyelitis model [5]: effective; effect in adjuvant arthritis model [6]: effective; inhibition of formation of IgE-like antibodies [7]: effectively inhibited
C=CCON=C1CCC(CC(C)C2CC(=O)C(C)C=C(C)C(O)C(OC)C(=O)C(C)CC(C)C=CC=CC=C(C)C(OC)CC3CCC(C)C(O)(O3)C(=O)C(=O)N3CCCCC3C(=O)O2)CC1OC (stereo not shown) [Example 9, 42-Deoxy-42-oxorapamycin 42-(O-allyl)-oxime]					LAF percent inhibition of T-cell proliferation [1]: 43%
CO[C@H]1C[C@@H]2CC[C@@H](C)[C@@](O)(O2)C(=O)C(=O)N2CCCC[C@H]2C(=O)O[C@H]([C@H](C)C[C@@H]2CCC(NO)[C@H](OC)C2)CC(=O)[C@H](C)/C=C(\C)[C@@H](O)[C@@H](OC)C(=O)[C@H](C)C[C@H](C)/C=C/C=C/C=C/1C (stereo partly shown) [Example 3, 42-Deoxo-42-(hydroxyamino)rapamycin]	8.25	0.18	9.6 ± 0.0 days	-84%	
CO[C@H]1C[C@@H]2CC[C@@H](C)[C@@](O)(O2)C(=O)C(=O)N2CCCC[C@H]2C(=O)O[C@H]([C@H](C)C[C@@H]2CCC(=NO)[C@H](OC)C2)CC(=O)[C@H](C)/C=C(\C)[C@@H](O)[C@@H](OC)C(=O)[C@H](C)C[C@H](C)/C=C/C=C/C=C/1C [Example 2, 42-Deoxo-42-(hydroxyimino)rapamycin]	8.41	0.85	10.8 ± 0.4 days		
COC1CC2CCC(C)C(O)(O2)C(=O)C(=O)N2CCCCC2C(=O)OC(C(C)CC2CCC(=NOC(C)(C)C)C(OC)C2)CC(=O)C(C)C=C(C)C(O)C(OC)C(=O)C(C)CC(C)C=CC=CC=C1C (stereo not shown) [Example 7, 2-Deoxy-42-oxoxapamycin 42-[O-(tert-butyl)]-oxime]					LAF percent inhibition of T-cell proliferation [1]: 49%
CO[C@H]1C[C@@H]2CC[C@@H](C)[C@@](O)(O2)C(=O)C(=O)N2CCCC[C@H]2C(=O)O[C@H]([C@H](C)C[C@@H]2CCC(=NOCc3ccccn3)[C@H](OC)C2)CC(=O)[C@H](C)/C=C(\C)[C@@H](O)[C@@H](OC)C(=O)[C@H](C)C[C@H](C)/C=C/C=C/C=C/1C [Example 5, 42-Deoxy-42-oxorapamycin 42-[O-(pyridin-2-ylmethyl)]-oxime]	8.82	0.40	7.8 ± 0.8 days	-53%	
42-Deoxy-42-oxorapamycin 42-[O-(pyridin-4-ylmethyl)]-oxime [Example 6]	8.74	0.31	8.0 ± 0.9 days		
42-Deoxy-42-oxorapamycin 42-[O-(phenylmethyl)]-oxime [Example 8]	7.66	0.03			
42-Deoxy-42-oxorapamycin 42-[O-(prop-2-ynyl)]-oxime [Example 10]	8.09	0.08	8.0 ± 1.1 days		
